The values below come from publication PMC10970622, “Functional Characterization of Endo- and Exo-Hydrolase Genes in Arabinan Degradation Gene Cluster of Bifidobacterium longum subsp. suis” (International Journal of Molecular Sciences, 2024).

One experiment deals with T1, BflsABN43B (Bifidobacterium longum, UniProt A0A087B7X0).
T1 construct: gene BLSS_1420; full length, 581 aa, 65 kDa, C-terminal His6, E. coli BL21(DE3); starts MTATTS by primer
T1 sequence (A0A087B7X0 1-581): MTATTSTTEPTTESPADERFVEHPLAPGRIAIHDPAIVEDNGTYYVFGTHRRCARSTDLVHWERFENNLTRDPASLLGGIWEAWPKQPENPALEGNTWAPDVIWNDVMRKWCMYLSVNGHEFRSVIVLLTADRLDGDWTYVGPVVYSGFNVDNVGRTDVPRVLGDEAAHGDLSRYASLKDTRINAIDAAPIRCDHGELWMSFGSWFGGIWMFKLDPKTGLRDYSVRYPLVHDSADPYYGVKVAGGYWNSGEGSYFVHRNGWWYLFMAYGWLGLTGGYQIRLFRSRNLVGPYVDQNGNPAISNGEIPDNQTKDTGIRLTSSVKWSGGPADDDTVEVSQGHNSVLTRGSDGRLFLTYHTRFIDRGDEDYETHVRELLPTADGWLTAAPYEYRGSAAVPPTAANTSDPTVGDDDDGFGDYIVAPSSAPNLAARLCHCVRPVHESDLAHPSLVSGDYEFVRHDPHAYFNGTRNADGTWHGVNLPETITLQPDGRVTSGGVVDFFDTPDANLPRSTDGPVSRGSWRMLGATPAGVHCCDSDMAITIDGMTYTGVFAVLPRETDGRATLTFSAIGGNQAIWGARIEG
Briefly: TLC of hydrolysis products. It is filed as biochemical. The following applies: 0.5% substrate, optimal conditions (pH 6.0, 50 °C).

In a further experiment the target is T2, BflsABN43A (Bifidobacterium longum, UniProt A0A087B7X1).
T2 construct: gene BLSS_1421; 531 aa (56 kDa) printed; 35-residue signal peptide removed (primer deltaS; starts M-SSNAKN by primer), C-terminal His6, E. coli; caution: same WP id also printed for BflsABF43A (710 aa)
T2 sequence (A0A087B7X1 36-531): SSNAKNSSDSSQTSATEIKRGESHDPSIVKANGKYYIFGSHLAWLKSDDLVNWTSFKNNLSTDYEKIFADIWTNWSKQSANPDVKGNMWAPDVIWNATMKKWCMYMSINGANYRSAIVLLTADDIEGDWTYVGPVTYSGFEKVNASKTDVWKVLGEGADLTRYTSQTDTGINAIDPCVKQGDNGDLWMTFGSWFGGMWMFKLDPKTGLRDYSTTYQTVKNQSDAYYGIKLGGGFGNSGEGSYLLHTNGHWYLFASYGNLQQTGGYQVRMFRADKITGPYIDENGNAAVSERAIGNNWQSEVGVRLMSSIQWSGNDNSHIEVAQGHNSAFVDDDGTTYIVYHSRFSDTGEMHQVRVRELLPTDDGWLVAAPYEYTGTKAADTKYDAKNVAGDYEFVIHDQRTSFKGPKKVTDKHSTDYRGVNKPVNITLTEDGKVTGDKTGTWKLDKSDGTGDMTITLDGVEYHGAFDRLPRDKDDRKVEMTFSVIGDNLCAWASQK
Briefly: TLC of hydrolysis products. It is filed as biochemical. The note with it: 0.5% substrate, optimal conditions (pH 5.0, 45 °C).

On to `OC[C@@H]1O[C@@H](OC[C@@H]2O[C@@H](OC[C@@H]3O[C@@H](OC[C@@H]4O[C@@H](OC[C@@H]5O[C@@H](OC[C@@H]6OC(O)[C@H](O)[C@H]6O)[C@H](O)[C@H]5O)[C@H](O)[C@H]4O)[C@H](O)[C@H]3O)[C@H](O)[C@H]2O)[C@H](O)[C@H]1O` (some centres unmarked) [A6, arabinohexaose], for which the “TLC of hydrolysis products” value on BflsABN43B was “both ABNs demonstrated detectable hydrolytic activities to produce A2 and arabinotetraose (A4)”; at BflsABN43A, “both ABNs demonstrated detectable hydrolytic activities to produce A2 and arabinotetraose (A4)”.
